Measured values: patent US12465567B2, “Enhanced antibiotic and drug delivery for aqueous topical applications for human and veterinary uses” (priority 2018, dated 2025)

Tests used:
[1] = system: reconstructed human skin (EPI-200; Epiderm); assay: in vitro skin irritation, MTT viability assay; assay type: cell-based
Protocol: In vitro skin irritation studies were carried out using reconstructed human skin (EPI-200; Epiderm; Mattek Corporation, Ashland, MA). […] Briefly, the MTT assay was performed by transferring the tissues to 24-well plates containing MTT medium (1 mg/ml). After 3 hours, formazan salt formed by cellular mitochondria was extracted with 2 ml/tissue of isopropanol and the optical density will be measured using a plate reader at 570 nm. Relative cell viability will be calculated as % of the mean of the negative control. The cytotoxicity was estimated by the time to kill 50% of the cells (ET-50).

[2] = in-vitro skin penetration, vertical diffusion cell
Protocol: Skin penetration studies were carried out using porcine full-thickness skin (Procured from Department of Animal and Range Sciences, SDSU) and excised human skin (NDRI, Philadelphia, PA). The skin was sandwiched between the two compartments of a vertical diffusion cell and equilibrated for 3 hrs. The receptor compartment was filled with phosphate buffer (pH 7.4) and was maintained at 37° C. with stirring. […] Samples (200μ) were removed from the receptor compartment at predetermined intervals and replaced with an equal volume of fresh buffer. To study the effect of the formulation forming a skin depot, in a separate experiment the skin was treated for 6 hrs and the treatment was removed. The donor compartment was replaced with plain buffer (pH 7.4) and the study was continued for 48 hrs. At the end of the study the skin was taken out and stratum corneum (SC) was removed using tape stripping and the tape strips were soaked in 50% ethanol overnight to extract the drug. The remaining skin (epidermis and dermis) was homogenized using 1M sodium hydroxide solution. Scintillation cocktail was added to all the samples and the radioactive counts were measured in a scintillation counter (Beckman).

Compound | ET 50 Value [1] [h] | amount of tetracycline in the human skin [2]
Triton X-100 [Positive control] | 5.28 | 
CN(C)[C@@H]1C(O)=C(C(N)=O)C(=O)[C@@]2(O)C(O)=C3C(=O)c4c(O)cccc4[C@@](C)(O)[C@H]3C[C@@H]12 [tetracycline] |  | 20-60 μg/sq·cm
